Laboratory results from patent US20050129772A1, “Compositions comprising an HIV protease inhibitor” (Agouron Pharmaceuticals, Inc., priority 2003, published 2005).
Where “and” joins values, the source holds several entries; their conditions need not be identical. Equal entries are not always repeated.

How the values were obtained:
[1] = oral dosing to fasted beagle dogs, plasma drug concentration; assay type: in vivo; settings: 25 mgA/kg; for AUC0-Tlast: oral gavage suspension in 0.5 wt % Methocel, plasma
Description: The area under the concentration-versus-time curve (“AUCO-Tlast”, ng*hr/mL), from the time the dose was administered to the last sample, is shown in Table 17. Crystalline Form I of Compound A (Control 1) and amorphous Compound A (Example 1) were tested using a similar protocol. The dose was administered to dogs as a suspension in a solution containing 0.5 wt % Methocel® (HPMC, USP grade, 4000 cps, Dow Chemical Co.). Oral administration of the aqueous drug suspensions was facilitated using an oral gavage equipped with a polyethylene tube insert. The polyethylene tube insert was used to accurately deliver the desired volume of dose by displacement, without the need for additional volume of water to rinse the tube. The dose was 25 mgA/kg (“mgA” refers to mg of active drug).

[2] = in vitro dissolution test in PBS at pH 6.5 and 290 mOsm/kg, 37° C.; assay type: physicochemical; design: AUC: concentration or dose not given beside the values; settings: for AUC90 (area under the concentration-versus-time curve during the initial ninety minutes) / AUC1200 / C1200 (Compound A concentration at 1200 minutes) / MDC90 (maximum concentration of drug during the initial ninety minutes): dose 3000 μg/mL; for Compound A Concentration: 3000 μg/mL if all dissolved
Description: An in vitro dissolution test was performed to determine whether the amorphous Compound A of Example 1 provides concentration-enhancement relative to the crystalline form of Compound A. For this test, a sufficient amount of material was added to a microcentrifuge test tube so that the concentration of Compound A would have been 3000 μg/mL, if all of Compound A had dissolved. The test was run in duplicate. The tubes were placed in a 37° C. temperature-controlled chamber, and 1.8 mL PBS at pH 6.5 and 290 mOsm/kg was added to each respective tube. The samples were quickly mixed using a vortex mixer for about 60 seconds. The samples were centrifuged at 13,000 G at 37° C. for 1 minute. The resulting supernatant solution was then sampled and diluted 1:6 (by volume) with methanol and then analyzed by high-performance liquid chromatography (HPLC). HPLC analysis was performed using a Phenomenex Luna C18 column. The mobile phase consisted of 55% 20 mM KH2PO4, adjusted to pH 3 with H3PO4, and 45% acetonitrile. UV absorbance was measured at 210 nm. The contents of each tube were mixed on the vortex mixer and allowed to stand undisturbed at 37° C. until the next sample was taken. Samples were collected at 4, 10, 20, 40, 90 and 1200 minutes. Control 1 consisted of crystalline Form I of Compound A alone, and a sufficient amount of material was added so that the concentration of Compound A would have been 3000 μg/mL, if all of Compound A had dissolved. The concentrations of drug obtained in these samples were used to determine the maximum concentration of drug (“MDC90”), the area under the concentration-versus-time curve (“AUC90”) during the initial ninety minutes, and the Compound A concentration at 1200 minutes (“[…]”). Example 2 was prepared by combining amorphous Compound A and a concentration-enhancing polymer. A simple physical mixture of Compound A and the concentration-enhancing polymer hydroxypropyl methyl cellulose acetate succinate (AQUOT-MG, available from Shin Etsu, Tokyo, Japan) was prepared by adding 5.4 mg of amorphous Compound A prepared as in Example 1 and 0.6 mg of HPMCAS to a centrifuge tube. The dry powders were mixed using a vortex mixer for 1 minute. Dissolution tests were performed as described in Example 1. […] For these tests, a sufficient amount of material was added so that the concentration of Compound A would have been 3000 μg/mL, if all of Compound A had dissolved. […] Examples 37A, 37B and 37C were prepared as in Example 2, but with the following exceptions: Example 37A was 5.4 mg Compound A and 0.6 mg HPMCAS; Example 37B was 5.4 mg Compound A and 0.167 mg HPMCAS; and Example 37C was 5.4 mg Compound A and 0.055 mg HPMCAS. Example 37D consisted of amorphous Compound A alone. MDC360 is the maximum dissolved drug concentration within the first 360 minutes, and AUC360 is the area under the dissolved drug concentration versus time curve at 360 minutes.

[3] = aqueous solubility of crystalline Compound A; assay type: physicochemical; settings: 26° C.
Source text: The compound (4R)—N-allyl-3-{(2S,3S)-2-hydroxy-3-[(3-hydroxy-2-methylbenzoyl)amino]-4-phenylbutanoyl}-5,5-dimethyl-1,3-thiazolidine-4-carboxamide (also called “(R)-3-((2S,3S)-2-hydroxy-3-{[1-(3-hydroxy-2-methyl-phenyl)-methanoyl]-amino}-4-phenyl-butanoyl)-5,5-dimethyl-thiazolidine-4-carboxylic acid allylamide,” “(4R)-3-[(2S,3S)-2-hydroxy-3-(3-hydroxy-2-methyl-benzoylamino)-4-phenyl-butyryl]-5,5-dimethyl-thiazolidine-4-carboxylic acid allylamide,” or “4-thiazolidinecarboxamide, 3-[(2S,3S)-2-hydroxy-3-[(3-hydroxy-2-methylbenzoyl)amino]-1-oxo-4-phenylbutyl]-5,5-dimethyl-N-2-propenyl-, (4R)-,” and hereinafter referred to as “Compound A”) is an inhibitor of the HIV protease enzyme that may be used for the treatment of HIV-infected mammals, such as humans. Compound A and its preparation are disclosed in U.S. patent application Ser. Nos. 10/166,979 filed Jun. 11, 2002; 60/527,477, filed Dec. 4, 2003, and, 10/782,602, filed Dec. 4, 2003, all of which incorporated herein by reference for this purpose. […] This low aqueous solubility, combined with a low in vivo permeability, result in low oral bioavailability for crystalline Compound A.

[4] = time 10 min, PBS pH 6.5, 37° C.
[5] = time 20 min, PBS pH 6.5, 37° C.
[6] = time 40 min, PBS pH 6.5, 37° C.
[7] = time 90 min, PBS pH 6.5, 37° C.
[8] = time 1200 min, PBS pH 6.5, 37° C.
[9] = PBS pH 6.5, 37° C., listed as Ex 1

Row | AUC0-Tlast [1] [ng·h/mL] | AUC90 (area under the concentration-versus-time curve during the initial ninety minutes) ([2]; PBS pH 6.5, 37° C.) | AUC1200 ([2]; PBS pH 6.5, 37° C.) | C1200 (Compound A concentration at 1200 minutes) ([2]; PBS pH 6.5, 37° C.) [µg/mL] | MDC90 (maximum concentration of drug during the initial ninety minutes) ([2]; PBS pH 6.5, 37° C.) | AUC ([2]; time 0 min, PBS pH 6.5, 37° C.) [µg·min/mL] | Compound A Concentration ([2]; time 0 min, PBS pH 6.5, 37° C.) [µg/mL] | AUC ([2]; time 4 min, PBS pH 6.5, 37° C.) [µg·min/mL] | Compound A Concentration ([2]; time 4 min, PBS pH 6.5, 37° C.) [µg/mL] | AUC [2, 4] [µg·min/mL] | Compound A Concentration [2, 4] [µg/mL] | AUC [2, 5] | Compound A Concentration [2, 5] [µg/mL] | AUC [2, 6] | Compound A Concentration [2, 6] [µg/mL] | AUC [2, 7] | Compound A Concentration [2, 7] [µg/mL] | AUC [2, 8] | Compound A Concentration [2, 8] [µg/mL] | Structure (SMILES) | other results
1 | 300 | 9200 µg·min/mL | 132,000 min*μg/mL | 109 | 112 µg/mL | 0 | 0 | 200 | 100 | 800 | 100 | 1800 µg·min/mL | 106 | 3900 µg·min/mL | 101 | 9200 µg·min/mL | 112 | 131,700 min * μg/mL | 109 | C=CCNC(=O)[C@H]1N(C(=O)[C@@H](O)[C@H](Cc2ccccc2)NC(=O)c2cccc(O)c2C)CSC1(C)C [Control 1, (4R)—N-allyl-3-{(2S,3S)-2-hydroxy-3-[(3-hydroxy-2-methylbenzoyl)amino]-4-phenylbutanoyl}-5,5-dimethyl-1,3-thiazolidine-4-carboxamide] | 
2 | 3500 | 75,900 min * μg/mL | 233,000 min*μg/mL | 126 | 1153 µg/mL and 1150 µg/mL | 0 | 0 | 2100 | 1070 | 8800 | 1140 | 20,200 min * μg/mL | 1150 | 43,200 min * μg/mL | 1150 | 75,900 min * μg/mL | 158 | 233,200 min * μg/mL | 126 | C=CCNC(=O)[C@H]1N(C(=O)[C@@H](O)[C@H](Cc2ccccc2)NC(=O)c2cccc(O)c2C)CSC1(C)C [Example 1, (4R)—N-allyl-3-{(2S,3S)-2-hydroxy-3-[(3-hydroxy-2-methylbenzoyl)amino]-4-phenylbutanoyl}-5,5-dimethyl-1,3-thiazolidine-4-carboxamide] | relative bioavailability (AUC of test composition divided by AUC of crystalline Form I of Compound A alone) ([1]; oral): 11.7 fold; AUC90 relative to crystalline Form I of Compound A ([2]; PBS pH 6.5, 37° C.): 8.3 fold; MDC relative to crystalline Form I of Compound A ([2]; PBS pH 6.5, 37° C.): 10.3 fold; AUC90 (area under the concentration-versus-time curve during the initial ninety minutes) [2, 9]: 75,900 min * μg/mL; C1200 (Compound A concentration at 1200 minutes) [2, 9]: 126 µg/mL; MDC90 (maximum concentration of drug during the initial ninety minutes) [2, 9]: 1150 µg/mL
3 |  |  |  |  |  |  |  |  |  |  |  |  |  |  |  |  |  |  |  | C=CCNC(=O)[C@H]1N(C(=O)[C@@H](O)[C@H](Cc2ccccc2)NC(=O)c2cccc(O)c2C)CSC1(C)C [Example 37D, (4R)—N-allyl-3-{(2S,3S)-2-hydroxy-3-[(3-hydroxy-2-methylbenzoyl)amino]-4-phenylbutanoyl}-5,5-dimethyl-1,3-thiazolidine-4-carboxamide] | AUC360 (area under the dissolved drug concentration versus time curve at 360 minutes) ([2]; dissolution as in Example 2): 180,000 min*μg/ml; MDC360 (maximum dissolved drug concentration within the first 360 minutes) ([2]; dissolution as in Example 2): 1190 µg/mL; C1200 ([2]; dissolution as in Example 2 (Example 37 series)): 140 µg/mL
4 |  |  |  |  |  |  |  |  |  |  |  |  |  |  |  |  |  |  |  | C=CCNC(=O)[C@H]1N(C(=O)[C@@H](O)[C@H](Cc2ccccc2)NC(=O)c2cccc(O)c2C)CSC1(C)C [Compound A, (4R)—N-allyl-3-{(2S,3S)-2-hydroxy-3-[(3-hydroxy-2-methylbenzoyl)amino]-4-phenylbutanoyl}-5,5-dimethyl-1,3-thiazolidine-4-carboxamide] | aqueous solubility ([3]; 0.1 N HCl (pH 1.2)): about 0.16 mgA/mL; aqueous solubility ([3]; normal saline (pH 8.2)): ~0.14 mgA/mL; aqueous solubility ([3]; unbuffered water (pH 8.3)): about 0.16 mgA/mL
